From patent publication US6673812B1, “Preventives/remedies for glaucoma” (Senju Pharmaceutical Co., Ltd., priority 1998, dated 2004)

How the values were obtained:
[1] = system: Japanese white rabbits; test: Ophthalmic disorder caused by 8-time-a-day instillation to white rabbits: observation of corneal staining spot; assay type: in vivo, rabbit; settings: after 8th administration
Experimental: The test drugs, Compound A and Compound C, were each dissolved in the following base at a concentration of 0.125, 0.25, 0.5 and 1.0% and adjusted to pH 7 for use in this experiment. Japanese white rabbits (body weight about 2 kg) purchased from Japan Laboratory Animals, INC. were used. These animals were bred in a breeding chamber set to temperature 23±3° C., humidity 55±10% and fed on limited amount of 100 g a day of a solid feed (Labo R Stock, Nihon-Nosan Kogyo K.K.). They were allowed free access to tap water. Instillation: Using a micropipet, each test drug (100 μl) was instilled into the right eye of each animal 8 times at one hour intervals. Into the left eye was instilled a base in the same manner. Observation: anterior segment of the eye was macroscopically observed before instillation and 30 min after 2nd, 4th, 6th and 8th administrations, according to the macroscopic criteria for ocular lesions as shown in Table 1 (Naruyuki Fukui, […] no Rinshou 4, 277-289, 1970). In addition, corneal staining spot was observed before instillation and after 8th administration.

[2] = system: extracted ciliary muscle of white rabbit; test: Effect on carbachol contraction of extracted ciliary muscle of white rabbit (Magnus bath); assay type: cell-based
Experimental: Male Japanese white rabbits (body weight about 2 kg) were euthanized by intravenous administration of an excess pentobarbital sodium. The eyeball was enucleated immediately thereafter and preserved in a Krebs solution (NaCl:112 mM, KC1:5.9 mM, CaCl2 2H2O:2.0 mM, MgCl2 6H2O:1.2 mM, NaH2PO4 2H2O:1.2 mM, NaHCO3:25 mM, Glucose:11.5 mM). The ciliary body separated from the eyeball was hung in a Magnus bath filled with the Krebs solution and equilibrated under a 20-30 mg resting tension. The changes in the tension of the preparation was measured with a transducer and recorded on a pen recorder via an amplifier. As the contraction drug, carbachol was used, and the inhibitory action on the dose dependent response of phasic contraction was studied. The test drug was (+)-trans-4-(1-aminoethyl)-1-(4-pyridylcarbamoyl)cyclohexane 2HCl 1H2O (Compound A), which was added to the Magnus bath 5 min before addition of carbachol.

[3] = system: Japanese white rabbits; test: Effect on normal intraocular pressure of white rabbits; assay type: in vivo, rabbit; settings: 20 μl eye drop, 0.1% or 0.03%
Excerpt: In this experiment, 0.1% eye drop and 0.03% eye drop containing Compound A (each prepared in Example 2 and Example 3), 0.03% eye drop containing Compound B (prepared in Example 4), 0.1% eye drop and 0.03% eye drop containing Compound C (each prepared in Example 5 and Example 6) and 0.03% eye drop containing Compound D (prepared in Example 7) were used.
Japanese white rabbits (body weight about 2 kg) purchased from Japan Laboratory Animals, INC. were used. These animals were bred in a breeding chamber set to temperature 23±3° C., humidity 55±10% and fed on limited amount of 100 g a day of a solid feed (Labo R Stock, Nihon-Nosan Kogyo K.K.). They were allowed free access to tap water. The rabbits were placed in a holding box for 5 hr a day for acclimation from 2 days prior to the test. […] After measurement of the initial value of the intraocular pressure, various eye drops (20 μl) were instilled into one eye, and a base, which was one of various eye drops except the test drug, was instilled into the other eye in the same manner and taken as the control eye.
The intraocular pressure was measured with time at 30, 60, 90, 120, 150 and 180 min after instillation and thereafter at one hour intervals until the intraocular pressure returned to the initial value, and the duration of the effect was examined.

[4] = system: Japanese white rabbits; test: Effect on blood flow of normal optic disc of white rabbits; assay type: in vivo, rabbit; settings: 0.1% eye drop
Experimental: In this experiment, 0.1% eye drop containing Compound A (prepared in Example 2) and 0.1% eye drop containing Compound C (prepared in Example 5) were used.
Japanese white rabbits (body weight about 2 kg) purchased from Japan Laboratory Animals, INC. were used. These animals were bred in a breeding chamber set to temperature 23±3° C., humidity 55±10% and fed on limited amount of 100 g a day of a solid feed (Labo R Stock, Nihon-Nosan Kogyo K.K.). They were allowed free access to tap water. In the same manner as in Example 4, each test drug was administered. Using laser speckle microcirculation analyzer, the blood flow of optic disc was measured at 30, 60, 90, 120, 150 and 180 min after instillation and thereafter at one hour intervals till 300 min after the instillation.

Question: Which results are given for C[C@@H](N)c1ccc(C(=O)Nc2ccncc2)cc1.Cl.Cl [Compound C, (R)-(+)-N-(4-pyridyl)-4-(1-aminoethyl)benzamide 2HCl]?
Answer: observation of corneal staining spot ([1]; 0.125% instillation): did not cause particular abnormality; observation of corneal staining spot ([1]; 0.25% instillation, corneal epithelium): abnormality in two eyes; observation of corneal staining spot ([1]; 0.5% instillation, corneal epithelium): abnormality in all eyes; observation of corneal staining spot ([1]; 1.0% instillation, corneal epithelium): abnormality in all eyes

Question: With CC(N)[C@H]1CC[C@H](C(=O)Nc2ccncc2)CC1.Cl.Cl.O (single isomer, unassigned; (+)) [Compound A, (+)-trans-4-(1-Aminoethyl)-1-(4-pyridylcarbamoyl)cyclohexane 2HCl 1H2O] as the compound, how does the “type of antagonism against carbachol contraction” value ([2]; 10^−6-3×10^−4 M carbachol) read?
Answer: non-competitive antagonism

Question: And the IC50 ([2]; ciliary muscle, added 5 min before carbachol, read-out: IC50 against carbachol contraction)?
Answer: 2800 nM

Question: What about the “character (onset, duration) of intraocular pressure lowering effect” value [3] of the same compound?
Answer: intraocular pressure lowering effect in early stages after instillation

Question: And the “duration of optic disc blood flow increasing effect” value [4]?
Answer: more long-lasting

Question: And the “observation of corneal staining spot” value ([1]; any concentration (0.125, 0.25, 0.5 and 1.0%))?
Answer: did not lead to abnormalities
